# Data taken from the supplement of paper PMC10307832.
# Legend:
# Assay in all cases: relative viability (nuclei count vs DMSO), 5 days (fraction); higher = more cells survive
# Carfilzomib = compound: CC(C)C[C@H](NC(=O)[C@H](CCc1ccccc1)NC(=O)CN1CCOCC1)C(=O)N[C@@H](Cc1ccccc1)C(=O)N[C@@H](CC(C)C)C(=O)[C@@]1(C)CO1 [Carfilzomib]
# Procedure, shortened: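 Cells of lung cancer lines were placed in 1536-well plates and kept overnight at 37 °C. Pinning then delivered five library-drug doses (not always all listed), spaced by √10, onto plates anchored with vehicle, and the cells were left 5 days without changing medium. One step fixed, permeabilised and stained them with Hoechst, and MetaXpress counted nuclei in 4× images. Viability, as a median over plates, is treated-well nuclei divided by vehicle-well nuclei, with acceptance only at control CV below 25% and at least one doubling.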
# Crizotinib + Foretinib = compound: C[C@@H](Oc1cc(-c2cnn(C3CCNCC3)c2)cnc1N)c1c(Cl)ccc(F)c1Cl [Crizotinib] + COc1cc2c(Oc3ccc(NC(=O)C4(C(=O)Nc5ccc(F)cc5)CC4)cc3F)ccnc2cc1OCCCN1CCOCC1 [Foretinib] (partner 0.25 µM)
# Procedure, shortened: (§1)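 Relative viability was taken as the ratio of nuclei in treated wells to nuclei in vehicle wells. Lung cancer cell lines in 1536-well plates received compounds by pin tool one day after seeding, either one drug alone or a fixed anchor-drug dose plus five library-drug doses (not always all listed) in √10 steps. Nuclei were counted on 4× images after 5 days of treatment, and values are medians of duplicate plates.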
# Olaparib + Foretinib = compound: O=C(c1cc(Cc2n[nH]c(=O)c3ccccc23)ccc1F)N1CCN(C(=O)C2CC2)CC1 [Olaparib] + COc1cc2c(Oc3ccc(NC(=O)C4(C(=O)Nc5ccc(F)cc5)CC4)cc3F)ccnc2cc1OCCCN1CCOCC1 [Foretinib] (partner 0.25 µM)
# Procedure, shortened: as §1
# Carfilzomib + Navitoclax = compound: CC(C)C[C@H](NC(=O)[C@H](CCc1ccccc1)NC(=O)CN1CCOCC1)C(=O)N[C@@H](Cc1ccccc1)C(=O)N[C@@H](CC(C)C)C(=O)[C@@]1(C)CO1 [Carfilzomib] + CC1(C)CCC(c2ccc(Cl)cc2)=C(CN2CCN(c3ccc(C(=O)NS(=O)(=O)c4ccc(N[C@H](CCN5CCOCC5)CSc5ccccc5)c(S(=O)(=O)C(F)(F)F)c4)cc3)CC2)C1 [Navitoclax] (partner 0.5 µM)
# Procedure, shortened: as §1
# Crizotinib + AZD7762 = compound: C[C@@H](Oc1cc(-c2cnn(C3CCNCC3)c2)cnc1N)c1c(Cl)ccc(F)c1Cl [Crizotinib] + NC(=O)Nc1cc(-c2cccc(F)c2)sc1C(=O)N[C@H]1CCCNC1 [AZD7762] (partner 0.2 µM)
# Procedure, shortened: as §1
cell line,measurement,setting,value
NCI-H1793,relative viability,Carfilzomib; 0.003162 µM,1.03
same,relative viability,Carfilzomib; 0.01 µM,0.827
same,relative viability,Carfilzomib; 0.03162 µM,0.9
same,relative viability,Carfilzomib; 0.1 µM,0.165
same,relative viability,Crizotinib + Foretinib; first compound 0.03162 µM,0.879
same,relative viability,Crizotinib + Foretinib; first compound 0.1 µM,0.604
same,relative viability,Crizotinib + Foretinib; first compound 1 µM,0.705
same,relative viability,Olaparib + Foretinib; first compound 0.08 µM,0.684
same,relative viability,Olaparib + Foretinib; first compound 0.253 µM,0.624
same,relative viability,Olaparib + Foretinib; first compound 2.53 µM,0.648
same,relative viability,Olaparib + Foretinib; first compound 8 µM,0.706
same,relative viability,Carfilzomib + Navitoclax; first compound 0.003162 µM,0.497
same,relative viability,Carfilzomib + Navitoclax; first compound 0.01 µM,0.52
same,relative viability,Carfilzomib + Navitoclax; first compound 0.03162 µM,0.462
same,relative viability,Carfilzomib + Navitoclax; first compound 0.1 µM,0.195
same,relative viability,Crizotinib + AZD7762; first compound 0.03162 µM,0.435
same,relative viability,Crizotinib + AZD7762; first compound 0.1 µM,0.41
same,relative viability,Crizotinib + AZD7762; first compound 1 µM,0.621
